Results as given in patent US20140106967A1, “AUXIN PLANT GROWTH REGULATORS” (The Governors of The University of Alberta, priority 2011, published 2014).

Tested on: canola cv. Peace
Assay: Greenhouse canola study, foliar auxin spray at green bud stage, with or without heat stress (Tables C1-C4)
Assay type: in vivo, Brassica napus
Conditions: for % pod set / Seed yield / Total number of flowers / Total number of pods with developing seeds / Total number of racemes / Total number undeveloped pods: heat stress 33° C. 6 h/day, 6 days (Table C2); for % pod set per plant / Seed yield (g) per plant / Total number of flowers per plant / Total number of pods with developing seeds per plant / Total number of racemes per plant / Total number undeveloped pods per plant: non-heat stress (Table C1)
Description: Canola seeds (Brassica napus) from the cultivar Peace were planted at an approximate depth of 1 cm in 5 inch square plastic pots (6 inch pot depth; 4 seeds per pot) in 1:1 Sunshine #4 potting mix (Sun Gro Horticulture, Vancouver, Canada) and sand. The seedlings were thinned to one seedling per pot approximately 2 weeks after seeding. Plants were grown at the University of Alberta in a greenhouse from Nov. 14, 2011 to Mar. 5, 2012. The average temperature was approximately 18° C. day/16° C. night (Nov. 14, 2011 to Feb. 8, 2012) then 21° C. day/19° C. night from Feb. 8 to Mar. 5, 2012. The plants also received supplemental lighting daily (average photon flux density of 250 μE m^−2s^−2) for 16 hours per day (from 6 am to 10 pm).
The auxins, 4-methyl-indole-3-acetic acid (4-ME-IAA) or 4-chloro-indole-3-acetic acid (4-Cl-IAA) at 1×10^−7, 1×10^−6, 1×10^−5, or 1×10^−4M in aqueous 0.1% (v/v) Tween 80 or a control solution (aqueous 0.1% [v/v] Tween 80) were applied one time as a foliar spray to canola plants at the green bud stage (BBCH scale 51; prior to bolting when flower buds are visible from above, but they are tightly clustered and have not extended above smallest leaves surrounding the inflorescence). The experiment was arranged in a completely randomized design in the greenhouse.
The heat stress treatment was imposed by moving plants to receive the heat stress from the greenhouse into a growth chamber for 6 days. The light cycle began at 7:00 hours at a 19° C. air temperature. The heat treatment began at 11:00 hours (33° C. air temperature) and was maintained for 6 hours (until 17:00 hours). Following the heat treatment, the remainder of the light cycle was maintained at a 22° C. air temperature. The dark cycle (began at 23:00 hours) was maintained at 17° C. The photoperiod was 16 h light/8 h dark at an average photon flux density of 492 μE m^−2s^−2 using 54W/835/HO high fluorescent bulbs, Phillips, Holland. This heat treatment cycle was imposed for 6 days. The plants were returned to the greenhouse after the heat stress treatment to develop to maturity.

Cc1cccc2[nH]cc(CC(=O)O)c12 [4-ME-IAA, 4-methyl-indole-3-acetic acid]
leaf epinasty (1×10^−4 M, 24 hours after treatment, milder under heat stress): leaf epinasty was observed | % pod set (1×10^−4 M): 60 ± 1% | Seed yield (1×10^−4 M): 6.0 ± 1.0 g | Total number of flowers (1×10^−4 M): 326 ± 34 | Total number of pods with developing seeds (1×10^−4 M): 196 ± 19 | Total number of racemes (1×10^−4 M): 12 ± 1 | Total number undeveloped pods (1×10^−4 M): 34 ± 10 | % pod set per plant (1×10^−4 M): 57 ± 2% | Seed yield (g) per plant (1×10^−4 M): 4.9 ± 0.4 g | Total number of flowers per plant (1×10^−4 M): 261 ± 14 | Total number of pods with developing seeds per plant (1×10^−4 M): 148 ± 9 | Total number of racemes per plant (1×10^−4 M): 11 ± 1 | Total number undeveloped pods per plant (1×10^−4 M): 16 ± 2 | increase in total number of flowers per plant vs control (1×10^−5 M, heat stress): 43% | increase in total number of racemes per plant vs control (1×10^−5 M, heat stress): 38% | % pod set (1×10^−5 M): 50 ± 2% | Seed yield (1×10^−5 M): 5.9 ± 1.2 g | Total number of flowers (1×10^−5 M): 520 ± 102 | Total number of pods with developing seeds (1×10^−5 M): 259 ± 55 | Total number of racemes (1×10^−5 M): 18 ± 2 | Total number undeveloped pods (1×10^−5 M): 64 ± 13 | % pod set per plant (1×10^−5 M): 62 ± 5% | Seed yield (g) per plant (1×10^−5 M): 5.7 ± 0.7 g | Total number of flowers per plant (1×10^−5 M): 265 ± 14 | Total number of pods with developing seeds per plant (1×10^−5 M): 165 ± 18 | Total number of racemes per plant (1×10^−5 M): 10 ± 0 | Total number undeveloped pods per plant (1×10^−5 M): 22 ± 6 | % pod set (1×10^−6 M): 44 ± 7% | Total number of flowers (1×10^−6 M): 435 ± 89 | Total number of pods with developing seeds (1×10^−6 M): 167 ± 15 | Total number of racemes (1×10^−6 M): 13 ± 2 | Total number undeveloped pods (1×10^−6 M): 71 ± 37 | % pod set per plant (1×10^−6 M): 62 ± 3% | Total number of flowers per plant (1×10^−6 M): 250 ± 21 | Total number of pods with developing seeds per plant (1×10^−6 M): 155 ± 16 | Total number of racemes per plant (1×10^−6 M): 10 ± 1 | Total number undeveloped pods per plant (1×10^−6 M): 17 ± 5 | % pod set (1×10^−7 M): 52 ± 4% | Seed yield (1×10^−7 M): 5.4 ± 0.9 g | Total number of flowers (1×10^−7 M): 418 ± 25 | Total number of pods with developing seeds (1×10^−7 M): 213 ± 6 | Total number of racemes (1×10^−7 M): 14 ± 1 | Total number undeveloped pods (1×10^−7 M): 50 ± 26 | increase in total number of pods with developing seeds per plant vs control (1×10^−7 M, heat stress (6 hours at 33° C. per day for 6 days)): 13% | increase in seed yield vs control (1×10^−7 M, non-heat stress): 22% | increase in total number of pods with developing seeds per plant vs control (1×10^−7 M, non-heat stress): 10% | % pod set per plant (1×10^−7 M): 66 ± 1% | Seed yield (g) per plant (1×10^−7 M): 5.5 ± 0.4 g | Total number of flowers per plant (1×10^−7 M): 256 ± 12 | Total number of pods with developing seeds per plant (1×10^−7 M): 170 ± 7 | Total number of racemes per plant (1×10^−7 M): 10 ± 1 | Total number undeveloped pods per plant (1×10^−7 M): 17 ± 3
